Experimental data published in patent US6852310B2, “Skin lightening agents, compositions and methods” (Unilever Home & Personal Care USA division of Conopco, Inc., priority 2002, dated 2005).

Experiments:
[1] = system: B16 mouse melanoma cells; test: Melanin synthesis in B16 mouse melanoma cells (cell based assay); conditions: 6.25 micromolar, 72 hours, melanin in medium read at 530-nm, read-out: % of Control (Melanin Synthesis)
Method: This experiment was carried out using a cell based assay.
B16 mouse melanoma cells were utilized in the following experiment to evaluate the efficacy of skin lightening agents. B16 cells were plated in 96-well microtiter plates at a density of 5000 cells per well and cultured overnight in Dulbecco's Modified Eagle's Medium (phenol red free) containing 10% fetal bovine serum and 1% penicillin/streptomycin at 37° C. in the presence of 5% CO2. After 24 hours, the medium was replaced with fresh growth medium containing the treatments. All cultures were incubated for 72 hours at which time melanin was visible in the control treatment. The melanin-containing medium was transferred to a clean 96-well plate and quantified by reading the absorbency at 530-nm. Cell viability was assessed by measurement of lactate dehydrogenase levels to ensure the decrease in melanin was not a result of cellular toxicity.

[2] = system: mushroom tyrosinase; test: Mushroom Tyrosinase Assay; type: biochemical; conditions: for tyrosinase activity, % of ethanol control: slope of 475-nm absorbency vs. untreated ethanol control, L-DOPA substrate
Method: Mushroom tyrosinase inhibition is indicative of reduction in melanin synthesis, thereby showing skin lightening effect.
Into each well of a 96-well plate, 150 microliters of phosphate buffer (100 mM, pH 7.0), 10 microliters of L-DOPA (L-3, 4-Dihydroxyphenylalanine, 10 mM), and 20 microliters of skin lightening agent (dissolved in ethanol, which is the control) were added. Following an initial measurement of background absorbency at 475-nm, 20 microliters of mushroom tyrosinase (Sigma T-7755; 6050 units/ml) was added and incubated at room temperature.
Absorbency is read at 475-nm over the following time points: 0, 2, 4, and 6.5 minutes. The data is plotted as 475-nm absorbency vs. time (minutes) and the slope of the line is calculated (ΔAbs 475 nm/min). Values are expressed as the percentage of the respective untreated ethanol control reaction. [formula]

| Compound | activity at 6.25 µM [1] [%] | tyrosinase activity, % of ethanol control ([2]; 0.1 uM) | tyrosinase activity, % of ethanol control ([2]; 1 uM) | tyrosinase activity, % of ethanol control ([2]; 10 uM) | tyrosinase activity, % of ethanol control ([2]; 100 uM) | skin lightening effectiveness (in words, from tyrosinase data) ([2]; conclusion drawn from Table 8) |
| --- | --- | --- | --- | --- | --- | --- |
| CCc1ccc(O)cc1O [4-Ethyl Resorcinol] | 15.6 | 72.7 % of Control | 46.3 % of Control | 30.8 % of Control | 20.7 % of Control | – |
| O=c1ccc2ccc(O)cc2o1 [7-Hydroxy Coumarin, 7-hydroxy coumarin] | – | 104 % of Control | 100 % of Control | 108 % of Control | 117 % of Control | effective in skin lightening |
| CNC(=O)/C=C\c1ccc(O)cc1O [Resorcinol Amide 1] | 13.1 | 75.1 % of Control | 51.0 % of Control | 53.0 % of Control | 53.4 % of Control | – |
| COCCNC(=O)/C=C\c1ccc(O)cc1O [Resorcinol Amide 2] | 13.7 | 84.2 % of Control | 59.5 % of Control | 58.0 % of Control | 57.9 % of Control | – |
